# Reference: US7118895B2, “Process for producing aglycon by using diglycosidase and flavor-improved food containing the aglycon and converting agent to be used in the process” (Amano Enzyme Inc., priority 2000, dated 2006)
# What was measured:
# [1] = tested on: Diglycosidase derived from A. fumigatus; assay: Reactivity toward various isoflavone glycosides (HPLC); assay type: biochemical, Aspergillus fumigatus; parameters: unit not given here; settings: 55 °C, pH 4.0
# Method in brief: (§1)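 Enzymes at 0.75 AU/mL in pH 4.0 acetate buffer were reacted at 55° C with individual isoflavone glycosides (substrate stock 2 mM in methanol) in 20 mM acetate pH 4.0. Aglycone release followed at 0, 1, 3 and 6 h: ethanol-quenched, ODS HPLC with UV 260 nm, quantified against calibration curves.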
# [2] = tested on: Crude diglycosidase; assay: Examination of substrate concentration in the conversion into isoflavone aglycons by diglycosidase using soybean materials; assay type: biochemical, Penicillium multicolor IAM7153;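 as to Decomposition efficiency: ratio of each glycoside/aglycon within its isoflavone family: percent of the isoflavone family total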
# Method in brief: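 Soybean materials (roasted soy flour, soymilk, defatted soybean, concentrated soy protein) at 2–30% (w/v) in 20 mM acetate pH 4.0 were reacted with crude diglycosidase at 55° C with shaking; enzyme solution added was 1.88 AU/mL. Samples taken at 0, 1, 3 and 6 h were ethanol-extracted and analyzed by HPLC.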
# [3] = tested on: β-Glucosidase derived from A. niger; assay: Reactivity toward various isoflavone glycosides (HPLC); assay type: biochemical, Aspergillus niger; parameters: glucoside / aglycon: unit not given here; settings: 55 °C, pH 4.0
# Method in brief: as §1
smiles,measurement,setting,value
O=c1c(-c2ccc(O)cc2)coc2cc(O[C@@H]3O[C@H](CO)[C@@H](O)[C@H](O)[C@H]3O)ccc12 [daidzin],aglycon,[1]; Reaction time 0 h,0.9
same,glucoside,[1]; Reaction time 0 h,99.1
same,aglycon,[1]; Reaction time 1 h,7.1
same,glucoside,[1]; Reaction time 1 h,92.9
same,aglycon,[1]; Reaction time 3 h,14.7
same,glucoside,[1]; Reaction time 3 h,85.3
same,aglycon,[1]; Reaction time 6 h,24.8
same,glucoside,[1]; Reaction time 6 h,75.2
same,Decomposition efficiency: ratio of each glycoside/aglycon within its isoflavone family,"[2]; roasted soy flour, substrate concentration 2%, heat treatment of enzyme no, reaction time 0 h",30.2%
same,Decomposition efficiency: ratio of each glycoside/aglycon within its isoflavone family,"[2]; roasted soy flour, substrate concentration 2%, heat treatment of enzyme no, reaction time 1 h",not detected
same,Decomposition efficiency: ratio of each glycoside/aglycon within its isoflavone family,"[2]; roasted soy flour, substrate concentration 2%, heat treatment of enzyme no, reaction time 3 h",not detected
same,Decomposition efficiency: ratio of each glycoside/aglycon within its isoflavone family,"[2]; roasted soy flour, substrate concentration 2%, heat treatment of enzyme no, reaction time 6 h",not detected
same,Decomposition efficiency: ratio of each glycoside/aglycon within its isoflavone family,"[2]; roasted soy flour, substrate concentration 2%, heat treatment of enzyme yes, reaction time 6 h",46.6%
same,Decomposition efficiency: ratio of each glycoside/aglycon within its isoflavone family,"[2]; roasted soy flour, substrate concentration 5%, heat treatment of enzyme no, reaction time 0 h",46.1%
same,Decomposition efficiency: ratio of each glycoside/aglycon within its isoflavone family,"[2]; roasted soy flour, substrate concentration 5%, heat treatment of enzyme no, reaction time 1 h",not detected
same,Decomposition efficiency: ratio of each glycoside/aglycon within its isoflavone family,"[2]; roasted soy flour, substrate concentration 5%, heat treatment of enzyme no, reaction time 3 h",not detected
same,Decomposition efficiency: ratio of each glycoside/aglycon within its isoflavone family,"[2]; roasted soy flour, substrate concentration 5%, heat treatment of enzyme no, reaction time 6 h",not detected
same,Decomposition efficiency: ratio of each glycoside/aglycon within its isoflavone family,"[2]; roasted soy flour, substrate concentration 5%, heat treatment of enzyme yes, reaction time 6 h",46.1%
same,Decomposition efficiency: ratio of each glycoside/aglycon within its isoflavone family,"[2]; roasted soy flour, substrate concentration 10%, heat treatment of enzyme no, reaction time 0 h",60.1%
same,Decomposition efficiency: ratio of each glycoside/aglycon within its isoflavone family,"[2]; roasted soy flour, substrate concentration 10%, heat treatment of enzyme no, reaction time 1 h",not detected
same,Decomposition efficiency: ratio of each glycoside/aglycon within its isoflavone family,"[2]; roasted soy flour, substrate concentration 10%, heat treatment of enzyme no, reaction time 3 h",not detected
same,Decomposition efficiency: ratio of each glycoside/aglycon within its isoflavone family,"[2]; roasted soy flour, substrate concentration 10%, heat treatment of enzyme no, reaction time 6 h",not detected
same,Decomposition efficiency: ratio of each glycoside/aglycon within its isoflavone family,"[2]; roasted soy flour, substrate concentration 10%, heat treatment of enzyme yes, reaction time 6 h",47.5%
same,Decomposition efficiency: ratio of each glycoside/aglycon within its isoflavone family,"[2]; roasted soy flour, substrate concentration 20%, heat treatment of enzyme no, reaction time 0 h",50.3%
same,Decomposition efficiency: ratio of each glycoside/aglycon within its isoflavone family,"[2]; roasted soy flour, substrate concentration 20%, heat treatment of enzyme no, reaction time 1 h",not detected
same,Decomposition efficiency: ratio of each glycoside/aglycon within its isoflavone family,"[2]; roasted soy flour, substrate concentration 20%, heat treatment of enzyme no, reaction time 3 h",not detected
same,Decomposition efficiency: ratio of each glycoside/aglycon within its isoflavone family,"[2]; roasted soy flour, substrate concentration 20%, heat treatment of enzyme no, reaction time 6 h",not detected
same,Decomposition efficiency: ratio of each glycoside/aglycon within its isoflavone family,"[2]; roasted soy flour, substrate concentration 20%, heat treatment of enzyme yes, reaction time 6 h",48.6%
same,Decomposition efficiency: ratio of each glycoside/aglycon within its isoflavone family,"[2]; roasted soy flour, substrate concentration 30%, heat treatment of enzyme no, reaction time 0 h",47.7%
same,Decomposition efficiency: ratio of each glycoside/aglycon within its isoflavone family,"[2]; roasted soy flour, substrate concentration 30%, heat treatment of enzyme no, reaction time 1 h",not detected
same,Decomposition efficiency: ratio of each glycoside/aglycon within its isoflavone family,"[2]; roasted soy flour, substrate concentration 30%, heat treatment of enzyme no, reaction time 3 h",not detected
same,Decomposition efficiency: ratio of each glycoside/aglycon within its isoflavone family,"[2]; roasted soy flour, substrate concentration 30%, heat treatment of enzyme no, reaction time 6 h",not detected
same,Decomposition efficiency: ratio of each glycoside/aglycon within its isoflavone family,"[2]; roasted soy flour, substrate concentration 30%, heat treatment of enzyme yes, reaction time 6 h",49.0%
same,Decomposition efficiency: ratio of each glycoside/aglycon within its isoflavone family,"[2]; soymilk, substrate concentration 2%, heat treatment of enzyme no, reaction time 0 h",53.5%
same,Decomposition efficiency: ratio of each glycoside/aglycon within its isoflavone family,"[2]; soymilk, substrate concentration 2%, heat treatment of enzyme no, reaction time 1 h",not detected
same,Decomposition efficiency: ratio of each glycoside/aglycon within its isoflavone family,"[2]; soymilk, substrate concentration 2%, heat treatment of enzyme no, reaction time 3 h",not detected
same,Decomposition efficiency: ratio of each glycoside/aglycon within its isoflavone family,"[2]; soymilk, substrate concentration 2%, heat treatment of enzyme no, reaction time 6 h",not detected
same,Decomposition efficiency: ratio of each glycoside/aglycon within its isoflavone family,"[2]; soymilk, substrate concentration 2%, heat treatment of enzyme yes, reaction time 6 h",39.8%
same,Decomposition efficiency: ratio of each glycoside/aglycon within its isoflavone family,"[2]; soymilk, substrate concentration 5%, heat treatment of enzyme no, reaction time 0 h",34.2%
same,Decomposition efficiency: ratio of each glycoside/aglycon within its isoflavone family,"[2]; soymilk, substrate concentration 5%, heat treatment of enzyme no, reaction time 1 h",not detected
same,Decomposition efficiency: ratio of each glycoside/aglycon within its isoflavone family,"[2]; soymilk, substrate concentration 5%, heat treatment of enzyme no, reaction time 3 h",not detected
same,Decomposition efficiency: ratio of each glycoside/aglycon within its isoflavone family,"[2]; soymilk, substrate concentration 5%, heat treatment of enzyme no, reaction time 6 h",not detected
same,Decomposition efficiency: ratio of each glycoside/aglycon within its isoflavone family,"[2]; soymilk, substrate concentration 5%, heat treatment of enzyme yes, reaction time 6 h",40.5%
same,Decomposition efficiency: ratio of each glycoside/aglycon within its isoflavone family,"[2]; soymilk, substrate concentration 10%, heat treatment of enzyme no, reaction time 0 h",34.6%
same,Decomposition efficiency: ratio of each glycoside/aglycon within its isoflavone family,"[2]; soymilk, substrate concentration 10%, heat treatment of enzyme no, reaction time 1 h",not detected
same,Decomposition efficiency: ratio of each glycoside/aglycon within its isoflavone family,"[2]; soymilk, substrate concentration 10%, heat treatment of enzyme no, reaction time 3 h",not detected
same,Decomposition efficiency: ratio of each glycoside/aglycon within its isoflavone family,"[2]; soymilk, substrate concentration 10%, heat treatment of enzyme no, reaction time 6 h",not detected
same,Decomposition efficiency: ratio of each glycoside/aglycon within its isoflavone family,"[2]; soymilk, substrate concentration 10%, heat treatment of enzyme yes, reaction time 6 h",39.4%
same,Decomposition efficiency: ratio of each glycoside/aglycon within its isoflavone family,"[2]; soymilk, substrate concentration 20%, heat treatment of enzyme no, reaction time 0 h",34.1%
same,Decomposition efficiency: ratio of each glycoside/aglycon within its isoflavone family,"[2]; soymilk, substrate concentration 20%, heat treatment of enzyme no, reaction time 1 h",not detected
same,Decomposition efficiency: ratio of each glycoside/aglycon within its isoflavone family,"[2]; soymilk, substrate concentration 20%, heat treatment of enzyme no, reaction time 3 h",not detected
same,Decomposition efficiency: ratio of each glycoside/aglycon within its isoflavone family,"[2]; soymilk, substrate concentration 20%, heat treatment of enzyme no, reaction time 6 h",not detected
same,Decomposition efficiency: ratio of each glycoside/aglycon within its isoflavone family,"[2]; soymilk, substrate concentration 20%, heat treatment of enzyme yes, reaction time 6 h",39.8%
same,Decomposition efficiency: ratio of each glycoside/aglycon within its isoflavone family,"[2]; soymilk, substrate concentration 30%, heat treatment of enzyme no, reaction time 0 h",34.9%
same,Decomposition efficiency: ratio of each glycoside/aglycon within its isoflavone family,"[2]; soymilk, substrate concentration 30%, heat treatment of enzyme no, reaction time 1 h",not detected
same,Decomposition efficiency: ratio of each glycoside/aglycon within its isoflavone family,"[2]; soymilk, substrate concentration 30%, heat treatment of enzyme no, reaction time 3 h",not detected
same,Decomposition efficiency: ratio of each glycoside/aglycon within its isoflavone family,"[2]; soymilk, substrate concentration 30%, heat treatment of enzyme no, reaction time 6 h",not detected
same,Decomposition efficiency: ratio of each glycoside/aglycon within its isoflavone family,"[2]; soymilk, substrate concentration 30%, heat treatment of enzyme yes, reaction time 6 h",40.0%
same,Decomposition efficiency of daidzin family in defatted soybean,"[2]; substrate concentration 2%, heat treatment of enzyme no, reaction time 0 h",42.3
same,Decomposition efficiency of daidzin family in defatted soybean,"[2]; substrate concentration 2%, heat treatment of enzyme no, reaction time 1 h",not detected
same,Decomposition efficiency of daidzin family in defatted soybean,"[2]; substrate concentration 2%, heat treatment of enzyme no, reaction time 3 h",not detected
same,Decomposition efficiency of daidzin family in defatted soybean,"[2]; substrate concentration 2%, heat treatment of enzyme no, reaction time 6 h",not detected
same,Decomposition efficiency of daidzin family in defatted soybean,"[2]; substrate concentration 2%, heat treatment of enzyme yes, reaction time 6 h",43.7
same,Decomposition efficiency of daidzin family in defatted soybean,"[2]; substrate concentration 5%, heat treatment of enzyme no, reaction time 0 h",44.0
same,Decomposition efficiency of daidzin family in defatted soybean,"[2]; substrate concentration 5%, heat treatment of enzyme no, reaction time 1 h",not detected
same,Decomposition efficiency of daidzin family in defatted soybean,"[2]; substrate concentration 5%, heat treatment of enzyme no, reaction time 3 h",not detected
same,Decomposition efficiency of daidzin family in defatted soybean,"[2]; substrate concentration 5%, heat treatment of enzyme no, reaction time 6 h",not detected
same,Decomposition efficiency of daidzin family in defatted soybean,"[2]; substrate concentration 5%, heat treatment of enzyme yes, reaction time 6 h",45.8
same,Decomposition efficiency of daidzin family in defatted soybean,"[2]; substrate concentration 10%, heat treatment of enzyme no, reaction time 0 h",45.6
same,Decomposition efficiency of daidzin family in defatted soybean,"[2]; substrate concentration 10%, heat treatment of enzyme no, reaction time 1 h",not detected
same,Decomposition efficiency of daidzin family in defatted soybean,"[2]; substrate concentration 10%, heat treatment of enzyme no, reaction time 3 h",not detected
same,Decomposition efficiency of daidzin family in defatted soybean,"[2]; substrate concentration 10%, heat treatment of enzyme no, reaction time 6 h",not detected
same,Decomposition efficiency of daidzin family in defatted soybean,"[2]; substrate concentration 10%, heat treatment of enzyme yes, reaction time 6 h",47.5
same,reactivity of β-glucosidase derived from Aspergillus niger (in words),[3],act well
same,aglycon,[3]; Reaction time 0 h,0
same,glucoside,[3]; Reaction time 0 h,100
same,aglycon,[3]; Reaction time 1 h,100
same,glucoside,[3]; Reaction time 1 h,0
same,aglycon,[3]; Reaction time 3 h,100
same,glucoside,[3]; Reaction time 3 h,0
same,aglycon,[3]; Reaction time 6 h,100
same,glucoside,[3]; Reaction time 6 h,0
